Source: patent US4322546A, “15-Deoxy-16-hydroxy-16-allenyl prostane derivatives of the E and F series” (American Cyanamid Company, priority 1980, dated 1982)

How the values were obtained:
Assay type in all cases: in vivo, Guinea-Pigs
[1] = tested on: bronchospasms elicited by intravenous injections of serotonin; assay: bronchodilator activity, Konzett procedure, against serotonin-induced bronchospasm; settings: Cavia porcellus; three logarithmic cumulative intravenous doses; spasmogen serotonin i.v.
Description: (§1) The bronchodilator activity for representative compounds of this invention was determined in Guinea-Pigs against bronchospasms elicited by intravenous injections of serotonin, histamine, and acetylcholine, by the Konzett procedure, the details of which are discussed by J. Lulling, P. Lievens, F. El Sayed and J. Prignot, Arzeimittel-Forschung 18, 995 (1968).
(§2) In the table which follows, bronchodilator activity for representative compounds of the invention against spasmogenic agents serotonin, histamine, and acetylcholine is expressed as an ED50 determined from the results obtained with three logarithmic cumulative intravenous doses.

[2] = tested on: bronchospasms elicited by intravenous injections of histamine; assay: bronchodilator activity, Konzett procedure, against histamine-induced bronchospasm; settings: Cavia porcellus; three logarithmic cumulative intravenous doses; spasmogen histamine i.v.
Description: as §1, §2

[3] = tested on: bronchospasms elicited by intravenous injections of acetylcholine; assay: bronchodilator activity, Konzett procedure, against acetylcholine-induced bronchospasm; settings: Cavia porcellus; three logarithmic cumulative intravenous doses; spasmogen acetylcholine i.v.
Description: as §1, §2

SMILES | ED50 [1] [µg/kg] | ED50 [2] [µg/kg] | ED50 [3] [µg/kg]
C=C=CC(O)(C/C=C/[C@H]1[C@H](O)CC(=O)[C@@H]1CCCCCCC(=O)O)CCCC (relative stereo) [dl 15-deoxy-16-hydroxy-16-allenyl-PGE1, dl-11α,16-dihydroxy-9-oxo-16-allenyl-13-trans prostenoic acid] | 1.05 | 1 | 1.2
C=C=CC(O)(C/C=C/[C@H]1[C@H](O)CC(=O)[C@@H]1C/C=C\CCCC(=O)O)CCCC (relative stereo) [dl 15-deoxy-16-hydroxy-16-allenyl-PGE2, dl-11α,16-dihydroxy-9-oxo-16-allenyl-5-cis-13-trans prostadienoic acid] | 1.4 | 1 | 1.2
